From US6156789A, “Method for treating abnormal cell proliferation in the brain” (Rhone-Poulenc Rorer S.A., priority 1998, dated 2000)
Like-named read-outs stand apart in the source and are kept apart here.

Test: Tissue distribution of Compound A in mice with mammary C/16 adenocarcinomas (first method: liver, heart, kidney, lung, spleen, tumor)
Assay type: in vivo, C3H/HeN female mice
Conditions: for Kp at 1 h / Kp at 14 h / half-life / Tmax / Kp at 0.033 h / Kp at 0.083 h / Kp at 0.25 h / Kp at 4 h / Kp at 0.5 h / Kp at 24 h / Kp at 0.75 h: mouse, iv; for Kp at 0.5 h: 0.50 h
Method: Mammary C/16 adenocarcinomas were implanted in C3H/HeN female mice. At least 7 days later, 4α,10β-diacetoxy-2α-benzoyloxy-5β,20-epoxy-1β-hydroxy-7β,8β-methylene-9-oxo-19-nor-11-taxen-13α-yl (2R,3S)-3-tert-butoxycarbonylamino-2-hydroxy-3-phenylpropionate ("Compound A") was administered to groups of female mice at doses of 9.5, 15.4, 24.8, 40 or 60.5 mg/kg by intravenous injection under 0.4 or 0.5 ml/injection over 15 seconds. The body weight and date of implantation were recorded for each mouse. Blood and tissue samples were taken 2, 5, 15, 30 and 45 minutes and 1, 4, 14, 24 and 48 hours, after administration. The plasma was separated from the blood samples at 4° C. and frozen immediately. The tissue and tumors were weighed and frozen immediately (-20° C.).
The plasma and tissue samples were then analyzed for the concentration of Compound A. The plasma was assayed by high pressure liquid chromatography with spectrophotometric detection. For the tissue, liver, heart, kidney, lung, spleen and tumor tissue, samples were assayed by a first method, while a second method was used for the brain tissue analyzed. In the first method, 0.2 g of tissue was combined with 2 ml of sodium phosphate buffer 0.1 M (pH:7) and homogenized. The homogenate was centrifuged and 0.5 ml of supernatant was injected into the chromatographic column. In the second method, 10 μl of standard solution was combined with 0.2 g of brain tissue. 2 ml of methanol/5% perchloric acid (50/50) were added and the mixture was homogenized. The homogenate was centrifuged and 100 μl of supernatant was injected into the chromatographic column.

[1] = kidney/plasma, 40 mg/kg, 40 μg/kg [sic], mice with tumors, single mice, read-out: Tissue/Plasma Ratio, KIDNEY
[2] = liver/plasma, 40 mg/kg, mice with tumors, single mice, read-out: Tissue/Plasma Ratio, LIVER
[3] = lung/plasma, 40 mg/kg, 40 μg/kg [sic], mice with tumors, single mice, read-out: Tissue/Plasma Ratio, LUNG
[4] = spleen/plasma, 40 mg/kg, mice with tumors, single mice, read-out: Tissue/Plasma Ratio, SPLEEN
[5] = tumor/plasma, 40 mg/kg, mice with tumors, single mice, read-out: Tissue/Plasma Ratio, TUMOR
[6] = tumor/plasma, dose 9.5, single mice, read-out: Tumor/Plasma Ratio
[7] = tumor/plasma, dose 15.4, single mice, MEAN=b373, read-out: Tumor/Plasma Ratio
[8] = tumor/plasma, dose 24.8, single mice, read-out: Tumor/Plasma Ratio
[9] = tumor/plasma, dose 40, single mice, read-out: Tumor/Plasma Ratio
[10] = tumor/plasma, dose 60.5, single mice, read-out: Tumor/Plasma Ratio

CC(=O)O[C@H]1C(=O)[C@]23C[C@H]2C[C@H]2OC[C@@]2(OC(C)=O)[C@H]3[C@H](OC(=O)c2ccccc2)[C@]2(O)C[C@H](OC(=O)[C@H](O)[C@@H](NC(=O)OC(C)(C)C)c3ccccc3)C(C)=C1C2(C)C [Compound A, 4α,10β-diacetoxy-2α-benzoyloxy-5β,20-epoxy-1β-hydroxy-7β,8β-methylene-9-oxo-19-nor-11-taxen-13α-yl (2R,3S)-3-tert-butoxycarbonylamino-2-hydroxy-3-phenylpropionate]
Kp at 1 h [1]: 2.17 | Kp at 14 h [1]: 2.56 | half-life (liver, 40 mg/kg, 40 mg/kg i.v., read-out: half-life of the distribution phase, liver (converted)): 17.4 min | half-life (liver, 40 mg/kg, read-out: t 1/2, Liver (converted)): 186 min | Tmax (liver, 40 mg/kg i.v., read-out: time of maximum concentration, liver): 4.98 min | Kp at 0.033 h [2]: 1.54 | Kp at 0.083 h [2]: 3.07 | Kp at 0.25 h [2]: 1.79 | Kp at 1 h [2]: 1.71 | Kp at 4 h [2]: 0.93 | Kp at 14 h (liver/plasma, 40 mg/kg, mice with tumors, single mouse, read-out: Tissue/Plasma Ratio, LIVER): 1.62 | half-life (lung, 40 mg/kg, 40 mg/kg i.v., read-out: half-life of the distribution phase, lung (converted)): 20.4 min | half-life (lung, 40 mg/kg, read-out: t 1/2, Lung (converted)): 174 min | Tmax (lung, 40 mg/kg i.v., read-out: time of maximum concentration, lung): 4.98 min | Kp at 0.033 h [3]: 0.33 | Kp at 0.083 h [3]: 0.79 | Kp at 0.25 h [3]: 0.95 | Kp at 0.5 h [3]: 1.27 | Kp at 1 h [3]: 1 | Kp at 4 h [3]: 1.43 | Kp at 14 h [3]: 0.81 | half-life (spleen, 40 mg/kg, 40 mg/kg i.v., read-out: half-life of the distribution phase, spleen (converted)): 13.8 min | half-life (spleen, 40 mg/kg, read-out: t 1/2, Spleen (converted)): 450 min | Tmax (spleen, 40 mg/kg i.v., read-out: time of maximum concentration, spleen): 4.98 min | Kp at 0.033 h [4]: 0.46 | Kp at 0.25 h [4]: 0.85 | Kp at 0.5 h [4]: 1.24 | Kp at 1 h [4]: 1.1 | Kp at 4 h [4]: 1.72 | Kp at 14 h [4]: 2.37 | half-life (tissues, 40 mg/kg, 40 mg/kg i.v., tissues other than brain, read-out: half-life in the other tissues): 96 to 558 min | half-life (tissues, 40 mg/kg, 40 mg/kg i.v., tissues tested except tumor and brain, read-out: elimination half-life, slower phase): 96 to 450 min | half-life (tumor, 40 mg/kg, read-out: t 1/2, Tumor (converted)): 558 min | Tmax (tumor, 40 mg/kg i.v., read-out: time of maximum concentration, tumor): 15 min | Kp at 0.033 h [5]: 0.2 | Kp at 0.083 h [5]: 0.37 | Kp at 0.25 h [5]: 0.58 | Kp at 0.5 h [5]: 0.78 | Kp at 1 h [5]: 0.95 | Kp at 4 h [5]: 1.8 | Kp at 24 h [5]: 2.79 | Kp at 0.033 h [6]: 0.24 | Kp at 0.25 h [6]: 0.51 | Kp at 0.75 h [6]: 0.94 | Kp at 1 h [6]: 2.02 | Kp at 4 h [6]: 3.45 | Kp at 0.033 h [7]: 0.23 | Kp at 0.083 h [7]: 0.28 | Kp at 0.25 h [7]: 0.6 | Kp at 0.5 h [7]: 0.97 | Kp at 0.75 h [7]: 1.75 | Kp at 1 h [7]: 1.83 | Kp at 4 h [7]: 1.9 | Kp at 0.033 h [8]: 0.13 | Kp at 0.083 h [8]: 0.28 | Kp at 0.25 h [8]: 0.71 | Kp at 0.75 h [8]: 1.14 | Kp at 1 h [8]: 1.29 | Kp at 4 h [8]: 1.61 | Kp at 0.033 h [9]: 0.2 | Kp at 0.083 h [9]: 0.37 | Kp at 0.25 h [9]: 0.58 | Kp at 0.5 h [9]: 0.78 | Kp at 1 h [9]: 0.95 | Kp at 4 h [9]: 1.8 | Kp at 24 h [9]: 2.79 | Kp at 0.083 h [10]: 0.19 | Kp at 0.25 h [10]: 0.39 | Kp at 0.5 h [10]: 0.62 | Kp at 4 h [10]: 2.48 | Kp at 24 h (tumor/plasma, dose 60.5, single mouse, read-out: Tumor/Plasma Ratio): 13.3 | pharmacokinetics in mice with mammary tumors, linearity (range of doses administered): similarly linear
